Test results reported in US7485653B2, “1,4-dihydropyridine compounds, pharmaceutical compositions, and methods for the treatment of cardiovascular disease” (Gilead Sciences, Inc., priority 2003, dated 2009).

Experiments:
[1] = tested on: α-myosin heavy chain (α-MyHC) protein levels; test: α-MyHC cytoblot assay in neonatal rat ventricular myocytes (NRVM); assay type: cell-based
Procedure: FIG. 1 Concentration-dependent effect of Compound 1 on αMyHC protein levels in the cytoblot assay. NRVM are cultured for 3 days in serum-free medium in the presence of differing amounts of Compound 1. At the end of the culture period, NRVM are fixed and analyzed for α-MyHC protein levels using the BA-G5 monoclonal antibody specific for α-MyHC. Results are collected as RLU using a Packard Fusion Plate reader, and normalized to the signal from samples cultured in the absence of compound (control, set to 100%).
Preparation and culture of neonatal rat ventricular myocytes (NRVM) was performed by removing hearts from 1-3 day old rat neonatal pups, along with the atria and lungs. The ventricles were cut into smaller pieces and digested 3 times with collagenase for 20-30 min at 37° C. The myocytes were then separated from other cell types using a Percoll gradient. The myocyte layer was collected, washed 2 times, and plated on tissue culture grade 10 cm Petri dishes for 1-2 hrs. The non-adherent cells (myocytes) were removed and plated in Costar clear view 96 well plates coated with 0.2% gelatin for at least 2 hrs. The gelatin solution was removed, and the myocytes were resuspended in DMEM high glucose media (Mediatech) containing 10% charcoal/dextran treated FBS (Hyclone) and 1% Penicillin-Streptomycin-Glutamine (PSG, Gibco). Ten thousand NRVM were plated per well in a 100 μl volume, and incubated overnight at 37° C. in 5% CO2 in air. The following day, the media was replaced with 100 μl of serum-free DMEM high glucose medium supplemented with PSG and 0.3% Nutridoma-SP (Roche).
Compounds were reconstituted in DMSO at 30 mM, and aliquots were stored at −20° C. A 1:1000 dilution was prepared in serum-free DMEM medium supplemented with PSG and 0.3% Nutridoma, and sonicated for 5 min at room temperature. After sonication, additional 3 fold dilutions were prepared in the same medium. Diluted compound was then added to the NRVM cultures in a volume of 100 μl. […]
For the α-MyHC cytoblot assay, NRVM cultures were analyzed for α-MyHC protein levels after 3 days of incubation. […] Excess antibody was removed with 3 PBS washes, and a chemiluminescent substrate was added (Pierce SuperSignal West Pico Chemiluminscent Substrate) for 5 min before quantitation on a Packard Fusion Plate Reader.
As shown above in Table 1, Compound 1 increased α-MyHC protein levels as determined by an α-MyHC cytoblot assay. […] After 3 days of incubation with NRVM, α-MyHC protein levels were detected in the cytoblot assay and quantitated (FIG. 1). […] An increase in α-MyHC protein levels was first detected beginning at 30 nM, with a maximal response observed at 3 μM. […]

α-MyHC protein levels = test: Western blotting of α-MyHC protein in NRVM; assay type: cell-based, rat; settings: NRVM stimulated 3 days; Compound 1 10 nM to 10 μM
Procedure: FIG. 2 Effect of Compound 1 on α-MyHC protein levels as detected by Western blotting. NRVM are stimulated with Compound 1 at different concentrations for 3 days. Protein extracts are prepared, proteins are separated by SDS-PAGE electrophoresis, transferred to PVDF membrane, and detected with an anti-α-MyHC monoclonal antibody.
As an independent measure of changes in α-MyHC protein levels, NRVM stimulated with Compound 1 were analyzed for α-MyHC protein levels by Western blotting. Protein extracts prepared from NRVM stimulated with a range of concentrations of Compound 1 from 10 nM to 10 μM were separated by SDS-PAGE and transferred to PVDF membrane. Levels of α-MyHC protein were detected by Western blotting using the same anti-α-MyHC monoclonal antibody used in the cytoblot assay. […] This experiment verified that the changes in α-MyHC protein detected in the cytoblot assay were also evident by Western blotting.

[2] = tested on: Hypertrophy of NRVM (secretion of atrial natriuretic factor); test: Anti-hypertrophic activity in NRVM, ANF ELISA (ANF secretion); assay type: cell-based; settings: Rattus norvegicus, read-out: IC50 of the ANF ELISA (antihypertrophic activity)
Procedure: Anti-hypertrophic Activity of Racemic Compound 1 and the Purified Enantiomers of Compound 1. Neonatal rat ventricular myocytes (NRVM) were isolated from 1 to 3 day-old Sprague-Dawley rats using enzymatic digestion and myocyte enrichment techniques. NRVM were cultured in serum-containing media for 18 hours. For the continuation of culture, serum-free media was used. Hypertrophy of NRVM was induced using pharmacological stimuli, including phenylephrine, endothelin-1, and […]. Hypertrophic responses were determined using methods including the following: measurement of total cellular protein; secretion of atrial natriuretic factor; determination of cell volume; determination of the expression of so-called fetal genes such as atrial natriuretic factor, beta-myosin heavy chain and alpha-skeletal actin. ANF secretion was the most sensitive assay for measuring hypertrophy, and the IC50 of the ANF ELISA was the measurement used to determine antihypertrophic activity.

Compound: CC(=O)C1=C(C)NC(SCC(=O)c2cccc([N+](=O)[O-])c2)=C(C#N)C1c1ccccc1Cl (racemic) [Compound 1]
- % increase of a-MyHC over baseline at 10 mM Cpd ([1]; 3 days incubation): 206%
- concentration at which an increase in α-MyHC protein levels was first detected ([1]; 3 days, tested 3 nM to 30 μM): 30 nM
- concentration of maximal response (α-MyHC protein levels) ([1]; 3 days, tested 3 nM to 30 μM): 3 µM
- EC50 ([1]; Rattus norvegicus, Ventricular myocyte, 72 h, 3 days, average of six independent experiments, read-out: concentration that gave a half-maximal response (α-MyHC protein levels)): 60 nM
- α-MyHC protein levels by Western blotting (α-MyHC protein levels): increasing amounts of α-MyHC protein were observed with increasing amounts of Compound 1
- IC50 [2]: 427 nM
